Molecular target: T1, C3aR (Homo sapiens, UniProt Q16581)
T1 sequence (Q16581 1-482): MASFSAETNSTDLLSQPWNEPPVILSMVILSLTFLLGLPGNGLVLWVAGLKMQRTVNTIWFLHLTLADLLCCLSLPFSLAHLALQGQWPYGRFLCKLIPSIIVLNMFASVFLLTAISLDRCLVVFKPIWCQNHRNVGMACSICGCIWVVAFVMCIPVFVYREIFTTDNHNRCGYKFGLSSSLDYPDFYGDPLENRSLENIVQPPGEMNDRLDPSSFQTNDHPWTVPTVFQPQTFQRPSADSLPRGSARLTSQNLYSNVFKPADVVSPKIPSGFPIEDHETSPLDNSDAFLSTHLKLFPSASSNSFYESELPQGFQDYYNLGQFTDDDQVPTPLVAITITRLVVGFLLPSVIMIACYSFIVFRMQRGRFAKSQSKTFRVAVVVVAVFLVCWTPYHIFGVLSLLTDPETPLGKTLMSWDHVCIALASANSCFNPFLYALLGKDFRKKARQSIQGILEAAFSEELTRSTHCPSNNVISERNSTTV
Assay: Inhibition of hC3a-induced histamine secretion in human LAD2 mast cells (antagonist mode)
Assay type: cell-based
Set-up: Concentration-dependent histamine secretion in human LAD2 mast cells; endogenous in cells; host or cells: LAD2 human mast cells
Details: hC3a 100 nM, pre-treated 30 min, n ≥ 3, ± SEM
Protocol: LAD2 human mast cells (kindly provided by Dr Dean Metcalfe, National Institute of Allergy and Infectious Diseases, National Institute of Health) were cultured in StemPro®-34 Serum Free Media (Invitrogen, Australia) supplemented with StemPro®-34 nutrient, 100 U/mL penicillin, 100 μg/mL streptomycin, 2 mM GlutaMAX, and 100 ng/mL human stem cell factor (SCF). Cells were hemi-depleted weekly and were not allowed to grow beyond a density of 0.5 × 10^6/mL. This cell line was authenticated by expression of tryptase and histamine granules. For the histamine assay, 1 × 10^4 cells per well were seeded in StemPro®-34 SFM in 96-well plates for 30 min before any treatments. For agonist studies, the cells were treated with compounds prepared in media for 30 min. For antagonist studies, the cells were pre-treated with compounds prepared in SFM for 30 min before addition of C3aR agonists for another 30 min. Cells were centrifuged (500 g, 5 min, 4 °C) and cell-free supernatants were collected for measuring histamine. Histamine content was measured using the histamine EIA kit according to the manufacturer’s instructions (Abnova, Taiwan). The readings were recorded on a FLUOstar Optima (BMG LabTechnologies, Offenburg, Germany).

IC50: 3.5 ± 1.5 nM
SMILES: N=C(N)NCCCC(NC(=O)c1ccc(C(c2ccccc2)c2ccccc2)s1)C(=O)O (stereo not shown) [Compound 6]
